# From ChEMBL document CHEMBL1201862, “PubChem BioAssay data set” (2004)
#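 Assay format: 96-well plates, 48-hour exposure. GI50 = concentration required for 50% inhibition of growth.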 The source made the active and inactive calls. Cut-off read from the data, not from the text of the source: active = GI50 up to about 1.1 µM and inactive = higher.
# Legend:
# Assay in all cases: NCI tumour cell line growth inhibition, 48 h
# T47D = system: T47D
# KM12 = system: KM12
# CAKI-1 = system: CAKI-1
# TK-10 = system: TK-10
# SNB-19 = system: SNB-19
# NCI-H460 = system: NCI-H460
# UACC-62 = system: UACC-62
# A549 = system: A549
# HL-60 = system: HL-60
# 786-0 = system: 786-0
# HCC 2998 = system: HCC 2998
# SN12C = system: SN12C
# NCI-H522 = system: NCI-H522
# SK-OV-3 = system: SK-OV-3
# OVCAR-5 = system: OVCAR-5
# NCI-H226 = system: NCI-H226
# SF-539 = system: SF-539
# Hs-578T = system: Hs-578T
# MDA-MB-435 = system: MDA-MB-435
# HOP-92 = system: HOP-92
SMILES,GI50 (T47D),GI50 (KM12),GI50 (CAKI-1),GI50 (TK-10),GI50 (SNB-19),GI50 (NCI-H460),GI50 (UACC-62),GI50 (A549),GI50 (HL-60),GI50 (786-0),GI50 (HCC 2998),GI50 (SN12C),GI50 (NCI-H522),GI50 (SK-OV-3),GI50 (OVCAR-5),GI50 (NCI-H226),GI50 (SF-539),GI50 (Hs-578T),GI50 (MDA-MB-435),GI50 (HOP-92)
O=C1NC(Nc2ccccc2Cl)=N/C1=C\c1c(Cl)cccc1Cl,28.6 µM (inactive),23.7 µM (inactive),27.8 µM (inactive),30.9 µM (inactive),44.1 µM (inactive),24.9 µM (inactive),32.1 µM (inactive),30.4 µM (inactive),18.6 µM (inactive),33.4 µM (inactive),21.9 µM (inactive),28.2 µM (inactive),18.7 µM (inactive),59.8 µM (inactive),30 µM (inactive),42.5 µM (inactive),51.5 µM (inactive),28.8 µM (inactive),11 µM (inactive),19.9 µM (inactive)
CCOc1cc(NC(C)=O)ccc1C(=O)NNS(=O)(=O)c1ccc(Cl)cc1Cl,> 50 µM (inactive),31.5 µM (inactive),> 50 µM (inactive),–,> 50 µM (inactive),> 50 µM (inactive),> 50 µM (inactive),> 50 µM (inactive),> 50 µM (inactive),> 50 µM (inactive),> 50 µM (inactive),> 50 µM (inactive),> 50 µM (inactive),> 50 µM (inactive),> 50 µM (inactive),> 50 µM (inactive),> 50 µM (inactive),> 50 µM (inactive),12.7 µM (inactive),> 50 µM (inactive)
O=C1C=C(C2=C(C3=CC(=O)c4ccccc4C3=O)C(=O)c3ccccc3C2=O)C(=O)c2ccccc21,6.19 µM (inactive),7 µM (inactive),4.7 µM (inactive),6.21 µM (inactive),14.4 µM (inactive),14.8 µM (inactive),15.1 µM (inactive),9.48 µM (inactive),1.21 µM (inactive),2.9 µM (inactive),16.9 µM (inactive),7.26 µM (inactive),2.17 µM (inactive),20.9 µM (inactive),11.8 µM (inactive),13 µM (inactive),8.28 µM (inactive),11.5 µM (inactive),2.47 µM (inactive),2.45 µM (inactive)
N/N=C1N=C(Cl)/C(=C/c2ccco2)N\1,40.4 µM (inactive),28.2 µM (inactive),48.6 µM (inactive),71.9 µM (inactive),50.5 µM (inactive),–,–,38 µM (inactive),21.9 µM (inactive),61.5 µM (inactive),27.6 µM (inactive),67.1 µM (inactive),22.7 µM (inactive),76 µM (inactive),> 100 µM (inactive),> 100 µM (inactive),22.4 µM (inactive),41.3 µM (inactive),40.6 µM (inactive),47.2 µM (inactive)
COc1ccc2c(c1)C(=O)OCCC2,> 100 µM (inactive),> 100 µM (inactive),> 100 µM (inactive),> 100 µM (inactive),> 100 µM (inactive),> 100 µM (inactive),> 100 µM (inactive),> 100 µM (inactive),> 100 µM (inactive),> 100 µM (inactive),> 100 µM (inactive),> 100 µM (inactive),> 100 µM (inactive),> 100 µM (inactive),> 100 µM (inactive),> 100 µM (inactive),> 100 µM (inactive),> 100 µM (inactive),> 100 µM (inactive),> 100 µM (inactive)
Cc1nnc(SCc2nc(C#N)c(C#N)nc2CSc2nnc(C)s2)s1,5.73 µM (inactive),19.3 µM (inactive),5.74 µM (inactive),6.82 µM (inactive),47.5 µM (inactive),24.2 µM (inactive),15.8 µM (inactive),33.3 µM (inactive),1.79 µM (inactive),9.48 µM (inactive),16.5 µM (inactive),17.3 µM (inactive),3.34 µM (inactive),33.3 µM (inactive),18.1 µM (inactive),25.1 µM (inactive),19.6 µM (inactive),17.1 µM (inactive),8.63 µM (inactive),12.9 µM (inactive)
CCOC(=O)NC(NC1=NCCS1)(C(=O)OCC)C(F)(F)F (stereo not drawn),> 100 µM (inactive),> 100 µM (inactive),> 100 µM (inactive),> 100 µM (inactive),> 100 µM (inactive),> 100 µM (inactive),–,> 100 µM (inactive),> 100 µM (inactive),> 100 µM (inactive),> 100 µM (inactive),> 100 µM (inactive),> 100 µM (inactive),> 100 µM (inactive),> 100 µM (inactive),> 100 µM (inactive),> 100 µM (inactive),> 100 µM (inactive),> 100 µM (inactive),> 100 µM (inactive)
CC(CC(=O)CO[C@H]1[C@H](O)[C@@H](O)[C@@H](O)[C@@H]2NC(=O)c3c(cc4c(c3O)OCO4)[C@H]21)OC1OC(CO)C(O)C(O)C1O (stereo partly drawn),0.203 µM (active),0.3 µM (active),0.857 µM (active),0.408 µM (active),0.304 µM (active),0.432 µM (active),0.733 µM (active),0.646 µM (active),0.372 µM (active),0.451 µM (active),0.218 µM (active),0.322 µM (active),0.311 µM (active),0.469 µM (active),1.26 µM (inactive),0.522 µM (active),0.419 µM (active),0.4 µM (active),0.392 µM (active),0.51 µM (active)
O=C(OCc1ccccc1)C1(N2CN(C3(C(=O)OCc4ccccc4)CCCC3)CN(C3(C(=O)OCc4ccccc4)CCCC3)C2)CCCC1,> 10 µM (inactive),> 10 µM (inactive),> 10 µM (inactive),> 10 µM (inactive),> 10 µM (inactive),> 10 µM (inactive),> 10 µM (inactive),> 10 µM (inactive),> 10 µM (inactive),> 10 µM (inactive),> 10 µM (inactive),> 10 µM (inactive),> 10 µM (inactive),> 10 µM (inactive),> 10 µM (inactive),> 10 µM (inactive),> 10 µM (inactive),> 10 µM (inactive),> 10 µM (inactive),> 10 µM (inactive)
NC1=Nc2ccccc2Sc2nncn21,> 100 µM (inactive),> 100 µM (inactive),> 100 µM (inactive),> 100 µM (inactive),> 100 µM (inactive),> 100 µM (inactive),> 100 µM (inactive),> 100 µM (inactive),> 100 µM (inactive),> 100 µM (inactive),> 100 µM (inactive),> 100 µM (inactive),77.6 µM (inactive),> 100 µM (inactive),> 100 µM (inactive),> 100 µM (inactive),> 100 µM (inactive),> 100 µM (inactive),> 100 µM (inactive),> 100 µM (inactive)
Cc1cc(C)c2c(=O)cc(-c3ccccc3)[nH]c2c1,12.5 µM (inactive),0.548 µM (active),3.29 µM (inactive),7.05 µM (inactive),5.43 µM (inactive),1.92 µM (inactive),1.6 µM (inactive),1.84 µM (inactive),0.479 µM (active),2.07 µM (inactive),1.38 µM (inactive),5.25 µM (inactive),0.755 µM (active),2.52 µM (inactive),10.4 µM (inactive),9.66 µM (inactive),2.31 µM (inactive),4.59 µM (inactive),0.211 µM (active),19.1 µM (inactive)
CCCCCCCCCCC/C=C(/C(=O)CCCO[Si](C)(C)C(C)(C)C)C(=O)OC,> 100 µM (inactive),> 100 µM (inactive),> 100 µM (inactive),> 100 µM (inactive),> 100 µM (inactive),> 100 µM (inactive),> 100 µM (inactive),–,> 100 µM (inactive),> 100 µM (inactive),> 100 µM (inactive),> 100 µM (inactive),> 100 µM (inactive),> 100 µM (inactive),> 100 µM (inactive),> 100 µM (inactive),> 100 µM (inactive),> 100 µM (inactive),> 100 µM (inactive),> 100 µM (inactive)
COC(=O)c1ccccc1CC1Cc2cc3c(cc2C1)CCC3,50.9 µM (inactive),26.5 µM (inactive),37.9 µM (inactive),> 100 µM (inactive),74.1 µM (inactive),48.2 µM (inactive),–,36.1 µM (inactive),9.75 µM (inactive),36.5 µM (inactive),42.5 µM (inactive),40.2 µM (inactive),28.6 µM (inactive),49.4 µM (inactive),50.4 µM (inactive),35.2 µM (inactive),54.2 µM (inactive),45.8 µM (inactive),29.4 µM (inactive),26.9 µM (inactive)
NC1CC(Cl)c2c(Cl)sc(Cl)c21 (stereo not drawn),> 100 µM (inactive),> 100 µM (inactive),> 100 µM (inactive),> 100 µM (inactive),–,> 100 µM (inactive),> 100 µM (inactive),> 100 µM (inactive),> 100 µM (inactive),> 100 µM (inactive),53.2 µM (inactive),> 100 µM (inactive),< 0.01 µM (active),> 100 µM (inactive),> 100 µM (inactive),> 100 µM (inactive),> 100 µM (inactive),> 100 µM (inactive),> 100 µM (inactive),> 100 µM (inactive)
